Target: T1, NAD(P)-dependent alcohol dehydrogenase (ADH) (Gluconobacter frateurii, UniProt Z9DFN4ZG31)
T1 construct: primers encode N-terminal MAQALVLEK and C-terminal DVKLQIVL
T1 sequence (Z9DFN4ZG31 1-345): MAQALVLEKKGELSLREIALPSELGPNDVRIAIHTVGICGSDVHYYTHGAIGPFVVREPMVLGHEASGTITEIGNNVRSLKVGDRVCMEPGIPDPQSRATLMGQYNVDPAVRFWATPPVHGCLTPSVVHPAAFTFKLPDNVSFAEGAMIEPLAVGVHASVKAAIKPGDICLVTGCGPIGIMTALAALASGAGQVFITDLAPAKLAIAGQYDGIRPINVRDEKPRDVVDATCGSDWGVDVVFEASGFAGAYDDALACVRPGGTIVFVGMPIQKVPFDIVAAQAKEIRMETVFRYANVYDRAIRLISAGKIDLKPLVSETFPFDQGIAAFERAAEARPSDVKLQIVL
Test: global fit (genetic algorithm) of HPLC time courses at […] allitol
Assay type: biochemical
Conditions: product inhibition, noncompetitive form with exponent alpha 1.326; one ki shared by fits with and without Co2+; allitol as substrate; NAD+ 2 mM, pH 7.0, 50 °C; purified or crude enzyme not stated

OCC1(O)OC[C@@H](O)[C@@H](O)[C@H]1O (stereo partly drawn) [D-allulose]
Ki: 10.7 mM
